Legend:
[1] = blood plasma half life after oral administration; type: in vivo; conditions: oral administration of immediate release composition
From the text: The pharmaceutical compositions useful in the practice of the invention are for oral administration and are “immediate release” dosage forms. That is, the pharmaceutical compositions useful in the practice of the invention have neither the pharmacokinetic nor physical characteristics of extended release pharmaceutical dosage forms. Thus, a pharmaceutical composition useful in the practice of the invention, if in solid form, will disintegrate or dissolve rapidly, preferably within one hour of administration, and administration of a pharmaceutical composition useful in the practice of the invention will result in a rapid rise in the blood plasma concentration of 5-methyl-2-(2′-chloro-6′-fluoroanilino)phenylacetic acid. Preferably, the blood plasma concentration of 5-methyl-2-(2′-chloro-6′-fluoroanilino)phenylacetic acid will reach a maximum within two to six hours after oral administration and will then fall rapidly due to the relatively short (3 to 6 hour) half life of 5-methyl-2-(2′-chloro-6′-fluoroanilino)phenylacetic acid.

[2] = chemical stability of drug substance in tablets as a function of residual moisture (LOD); type: physicochemical; conditions: LOD kept at about 2.1%-4.5% (200 mg tablets) or about 1.7%-3.5% (400 mg, 65% drug-loaded tablets)
Procedure: That is, certain degradation products of 5-methyl-2-(2′-chloro-6′-fluoroanilino)phenylacetic acid are formed at a greater rate in dryer tablets, which is contrary to the typical behavior of drug substances. In general, moisture, in the form of water, is detrimental to drug stability, and packaging for pharmaceutical formulations frequently contains some form of desiccant material to minimize moisture levels.
Tablets with about 200 mg of active agent preferably have an LOD of 3.5% with a desirable range between about 2.1% and about 4.5%. 65% drug-loaded tablets with about 400 mg of active agent preferably have an LOD of about 2.5%, with a desirable range between about 1.7% and about 3.5%.
The compositions and methods of the invention provide solid pharmaceutical compositions for oral administration comprising 5-methyl-2-(2′-chloro-6′-fluoroanilino)phenylacetic acid with minimal levels of total degradation products Oral dosage levels for 5-methyl-2-(2′-chloro-6′-fluoroanilino)phenylacetic acid are of the order of between about 200 and about 1200 mg per patient per day. In a preferred embodiment, the effective amount is between about 200 and about 800 mg. In a more preferred embodiment, the effective amount is between about 200 and about 600 mg. In an even more preferred embodiment, the effective amount is between about 200 and about 400 mg. […]

With `Cc1ccc(Nc2c(F)cccc2Cl)c(CC(=O)O)c1` [5-methyl-2-(2′-chloro-6′-fluoroanilino)phenylacetic acid] the half-life [1] was 3 to 6 h and the “chemical stability of the active agent in tablets” value [2] was “more chemically stable”.
